The target in one series is T1, human OAT3 (Homo sapiens, UniProt Q8TCC7).
T1 sequence (Q8TCC7 1-542): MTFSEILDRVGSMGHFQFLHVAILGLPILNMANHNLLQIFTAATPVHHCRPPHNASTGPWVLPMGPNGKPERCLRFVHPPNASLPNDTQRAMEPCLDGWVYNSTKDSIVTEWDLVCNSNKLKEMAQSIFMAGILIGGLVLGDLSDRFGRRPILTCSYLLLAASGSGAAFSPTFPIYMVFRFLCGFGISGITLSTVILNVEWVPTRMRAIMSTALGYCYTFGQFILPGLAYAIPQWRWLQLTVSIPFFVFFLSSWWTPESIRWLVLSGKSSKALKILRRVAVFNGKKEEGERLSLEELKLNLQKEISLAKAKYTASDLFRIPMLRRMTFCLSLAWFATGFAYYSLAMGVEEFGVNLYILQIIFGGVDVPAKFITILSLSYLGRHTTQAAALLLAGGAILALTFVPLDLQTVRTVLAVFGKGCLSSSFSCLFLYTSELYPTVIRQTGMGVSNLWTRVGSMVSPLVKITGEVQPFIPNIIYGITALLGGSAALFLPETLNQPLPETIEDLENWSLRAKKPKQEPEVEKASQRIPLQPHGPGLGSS
As to the kind of experiment: cell-based.

Another series addresses T2, human OCT1 (Homo sapiens, UniProt O15245).
T2 sequence (O15245 1-554): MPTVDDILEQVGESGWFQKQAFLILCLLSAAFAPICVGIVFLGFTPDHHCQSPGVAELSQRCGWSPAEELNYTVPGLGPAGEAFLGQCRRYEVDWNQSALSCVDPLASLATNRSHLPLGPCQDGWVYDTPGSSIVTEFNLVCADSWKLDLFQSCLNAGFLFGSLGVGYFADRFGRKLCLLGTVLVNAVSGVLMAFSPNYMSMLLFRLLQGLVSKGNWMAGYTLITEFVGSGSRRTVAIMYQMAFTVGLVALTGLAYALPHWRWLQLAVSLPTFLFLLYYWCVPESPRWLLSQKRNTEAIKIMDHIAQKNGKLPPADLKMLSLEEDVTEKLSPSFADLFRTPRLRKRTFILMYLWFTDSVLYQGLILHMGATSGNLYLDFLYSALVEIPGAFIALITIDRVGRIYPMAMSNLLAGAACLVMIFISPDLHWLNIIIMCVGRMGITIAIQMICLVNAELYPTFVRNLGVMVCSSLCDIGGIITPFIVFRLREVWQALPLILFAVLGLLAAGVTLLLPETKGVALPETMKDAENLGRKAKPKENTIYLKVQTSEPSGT
As to the kind of experiment: cell-based.

The test system of series [1] is transporters at major organ sites. The experiment in a line: Prediction of transporter-mediated inhibition / DDI potential. On the set-up: species or system human. The conditions noted are these: of 11 transporters; FDA criteria.
Another series has as its target P-gp (Homo sapiens, UniProt P08183). As to the kind of experiment: biochemical.
In a further series the target is T3, human OAT1 (Homo sapiens, UniProt Q4U2R8).
T3 sequence (Q4U2R8 1-563): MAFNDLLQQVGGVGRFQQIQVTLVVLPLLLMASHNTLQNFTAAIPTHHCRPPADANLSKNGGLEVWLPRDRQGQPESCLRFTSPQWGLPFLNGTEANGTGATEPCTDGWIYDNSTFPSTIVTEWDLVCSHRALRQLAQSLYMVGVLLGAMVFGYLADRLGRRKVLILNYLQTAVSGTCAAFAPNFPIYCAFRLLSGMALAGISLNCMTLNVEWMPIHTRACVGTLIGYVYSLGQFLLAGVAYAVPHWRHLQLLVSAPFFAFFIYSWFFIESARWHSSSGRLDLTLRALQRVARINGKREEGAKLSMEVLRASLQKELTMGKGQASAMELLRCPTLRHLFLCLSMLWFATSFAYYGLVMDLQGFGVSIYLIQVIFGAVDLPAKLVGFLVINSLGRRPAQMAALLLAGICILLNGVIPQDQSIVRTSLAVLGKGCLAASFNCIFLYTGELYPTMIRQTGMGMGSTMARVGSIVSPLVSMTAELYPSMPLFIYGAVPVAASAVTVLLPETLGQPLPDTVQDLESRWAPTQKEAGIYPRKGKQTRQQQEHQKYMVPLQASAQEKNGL
The experiment in a line: cell-based.

A further series concerns the target T4, BCRP (Homo sapiens, UniProt Q9UNQ0).
T4 sequence (Q9UNQ0 1-655): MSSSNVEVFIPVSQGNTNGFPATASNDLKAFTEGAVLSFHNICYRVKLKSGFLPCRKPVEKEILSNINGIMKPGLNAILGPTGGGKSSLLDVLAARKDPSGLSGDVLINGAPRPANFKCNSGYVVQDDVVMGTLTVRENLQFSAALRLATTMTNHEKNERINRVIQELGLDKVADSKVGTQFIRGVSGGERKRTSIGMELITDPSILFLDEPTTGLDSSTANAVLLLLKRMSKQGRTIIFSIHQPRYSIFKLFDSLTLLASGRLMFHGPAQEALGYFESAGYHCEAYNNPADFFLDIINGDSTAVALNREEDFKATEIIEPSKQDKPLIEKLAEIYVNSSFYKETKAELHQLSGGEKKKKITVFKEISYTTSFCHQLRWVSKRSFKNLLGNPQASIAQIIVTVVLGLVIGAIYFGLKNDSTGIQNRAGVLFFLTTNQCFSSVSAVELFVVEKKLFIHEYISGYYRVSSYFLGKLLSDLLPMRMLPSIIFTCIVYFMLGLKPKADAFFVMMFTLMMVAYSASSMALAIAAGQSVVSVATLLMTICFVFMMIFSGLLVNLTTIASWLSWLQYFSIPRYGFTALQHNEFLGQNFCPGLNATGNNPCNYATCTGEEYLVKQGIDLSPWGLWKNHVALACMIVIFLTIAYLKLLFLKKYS
The experiment in a line: biochemical.

For series [2] the following is noted: known in vivo P-gp inhibitor; cited from earlier work.
Another series concerns the target human MATE2 (Homo sapiens, UniProt Q86VL8). The experiment in a line: cell-based.
The next series addresses T5, human MATE1 (Homo sapiens, UniProt Q96FL8).
T5 sequence (Q96FL8 1-570): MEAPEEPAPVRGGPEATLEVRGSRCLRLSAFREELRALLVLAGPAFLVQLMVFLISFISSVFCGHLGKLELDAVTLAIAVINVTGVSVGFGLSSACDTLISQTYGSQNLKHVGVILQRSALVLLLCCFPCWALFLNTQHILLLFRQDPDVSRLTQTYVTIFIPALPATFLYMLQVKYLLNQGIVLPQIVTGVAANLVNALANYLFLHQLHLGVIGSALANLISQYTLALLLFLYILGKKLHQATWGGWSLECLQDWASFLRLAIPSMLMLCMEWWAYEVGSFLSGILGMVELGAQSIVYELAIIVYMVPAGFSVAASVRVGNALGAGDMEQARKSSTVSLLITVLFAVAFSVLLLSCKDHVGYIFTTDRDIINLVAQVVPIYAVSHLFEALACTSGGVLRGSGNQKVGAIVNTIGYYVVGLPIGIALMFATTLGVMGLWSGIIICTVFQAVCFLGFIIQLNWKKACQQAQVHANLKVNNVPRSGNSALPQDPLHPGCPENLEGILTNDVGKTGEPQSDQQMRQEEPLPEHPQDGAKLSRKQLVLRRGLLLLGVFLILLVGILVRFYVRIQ
As to the kind of experiment: cell-based.

Molecules are shown by their SMILES.

By IC50 is commonly meant the concentration needed to halve the response being measured. A higher IC50 goes with weaker potency in that assay.

P-gp, sequence (P08183 whole entry): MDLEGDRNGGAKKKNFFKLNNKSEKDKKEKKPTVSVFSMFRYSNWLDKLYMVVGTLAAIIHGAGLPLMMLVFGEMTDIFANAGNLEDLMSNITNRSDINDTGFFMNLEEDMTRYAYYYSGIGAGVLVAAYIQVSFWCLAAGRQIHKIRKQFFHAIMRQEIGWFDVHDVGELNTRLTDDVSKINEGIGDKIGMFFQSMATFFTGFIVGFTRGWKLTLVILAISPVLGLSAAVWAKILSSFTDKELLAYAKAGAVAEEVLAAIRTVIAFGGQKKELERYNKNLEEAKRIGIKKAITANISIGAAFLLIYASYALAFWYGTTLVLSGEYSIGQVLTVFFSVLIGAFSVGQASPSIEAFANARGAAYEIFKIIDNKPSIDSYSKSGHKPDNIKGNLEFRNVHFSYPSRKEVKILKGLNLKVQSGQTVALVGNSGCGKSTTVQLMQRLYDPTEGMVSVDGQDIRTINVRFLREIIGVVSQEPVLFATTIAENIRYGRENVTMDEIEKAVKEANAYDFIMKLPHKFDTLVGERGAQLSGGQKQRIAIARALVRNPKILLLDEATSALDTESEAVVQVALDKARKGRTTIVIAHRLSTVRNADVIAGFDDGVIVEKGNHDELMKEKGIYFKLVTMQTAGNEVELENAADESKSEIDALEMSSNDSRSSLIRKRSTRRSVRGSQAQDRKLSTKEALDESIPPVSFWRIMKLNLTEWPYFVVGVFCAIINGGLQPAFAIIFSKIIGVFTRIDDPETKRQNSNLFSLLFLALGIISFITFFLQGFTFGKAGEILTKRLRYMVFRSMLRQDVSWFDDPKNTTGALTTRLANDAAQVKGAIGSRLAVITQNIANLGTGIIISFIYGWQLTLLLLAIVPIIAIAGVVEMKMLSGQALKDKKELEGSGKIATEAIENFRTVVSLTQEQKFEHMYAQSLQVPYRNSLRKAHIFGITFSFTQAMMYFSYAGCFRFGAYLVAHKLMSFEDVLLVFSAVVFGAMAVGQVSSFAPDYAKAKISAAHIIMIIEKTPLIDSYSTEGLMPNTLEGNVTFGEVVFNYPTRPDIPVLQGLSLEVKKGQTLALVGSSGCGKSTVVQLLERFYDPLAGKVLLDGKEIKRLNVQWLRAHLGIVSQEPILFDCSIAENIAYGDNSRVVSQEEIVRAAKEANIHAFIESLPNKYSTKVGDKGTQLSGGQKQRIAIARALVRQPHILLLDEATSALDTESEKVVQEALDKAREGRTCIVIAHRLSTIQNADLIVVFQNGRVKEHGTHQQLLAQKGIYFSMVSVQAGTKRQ
human MATE2, sequence (Q86VL8 1-566 isoform Q86VL8-3): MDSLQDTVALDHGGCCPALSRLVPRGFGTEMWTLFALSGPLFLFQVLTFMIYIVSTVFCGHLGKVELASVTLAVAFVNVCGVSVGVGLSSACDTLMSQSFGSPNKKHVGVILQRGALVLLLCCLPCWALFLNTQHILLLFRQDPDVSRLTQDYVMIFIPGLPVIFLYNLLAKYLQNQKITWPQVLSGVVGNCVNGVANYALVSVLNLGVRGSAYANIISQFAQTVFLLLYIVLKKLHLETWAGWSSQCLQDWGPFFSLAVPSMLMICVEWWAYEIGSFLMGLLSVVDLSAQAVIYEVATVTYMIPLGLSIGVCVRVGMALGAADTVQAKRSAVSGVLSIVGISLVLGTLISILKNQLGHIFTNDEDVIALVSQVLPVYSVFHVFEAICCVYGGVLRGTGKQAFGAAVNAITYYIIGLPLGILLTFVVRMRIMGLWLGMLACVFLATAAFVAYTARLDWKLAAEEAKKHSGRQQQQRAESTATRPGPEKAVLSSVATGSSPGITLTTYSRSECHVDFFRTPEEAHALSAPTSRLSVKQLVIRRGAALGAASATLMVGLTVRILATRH

Turning to `CC[C@H]1OC(=O)[C@H](C)[C@@H](O[C@H]2C[C@@](C)(OC)[C@@H](O)[C@H](C)O2)[C@H](C)[C@@H](O[C@@H]2O[C@H](C)C[C@H](N(C)C)[C@H]2O)[C@](C)(O)C[C@@H](C)CN(C)[C@H](C)[C@@H](O)[C@]1(C)O` [Azithromycin], the IC50 was greater than 50 µM against human OAT3; greater than 50 µM against human OCT1; 18 µM at P-gp; greater than 50 µM against human OAT1; greater than 50 µM against BCRP; greater than 50 µM on human MATE2. Besides, on human MATE1, the IC50 is greater than 50 µM. Further, the “No. of transporters at major organ sites inhibited at clinical concentrations” value in series [1] is given as 1. Besides, the “effect on plasma levels of P-gp substrates” value in series [2] is “increases plasma levels of the non‐sedating antihistamine, fexofenadine, and the anticoagulant, ximelagatran”.

Source of the values: PMC8217266 (Clinical Pharmacology and Therapeutics, 2021).
